Reference: US6579851B2, “Effects of glucagon-like peptide-1 (7-36) on antro-pyloro-duodenal motility” (Amylin Pharmaceuticals, Inc., priority 2000, dated 2003)
Like-named read-outs stand apart in the source and are kept apart here.

Columns and labels:
[1] = Plasma pancreatic polypeptide immunoreactivity during intravenous GLP-1 infusion; format: in vivo, human
Description: (§1) All values were expressed as mean±SEM. […] Differences were considered significant at P<0.05.
(§2) All studies were performed after an overnight fast.
(§3) The plasma was stored at −20° C. until assayed.

[2] = Plasma glucagon immunoreactivity during intravenous GLP-1 infusion; format: in vivo, human
Description: as §1, §2, §3

[3] = for GLP-1 (plasma immunoreactivity, AUC over basal): 60 min period, mean ± SEM
Description: Plasma glucose concentrations were measured using a glucose analyzer by the glucose oxidase method (YSI 1500 G; Schlag, Bergisch-Gladbach, Germany), with a coefficient of variation of <2%. Plasma insulin was measured by the Abbott Imx Microparticle Enzyme Immunoassay, with an average intraassay coefficient of variation of 5%. Plasma immunoreactivities of C-peptide, glucagon, and pancreatic polypeptide (PP) were analyzed by commercially available radioimmunoassay kits (Biermann, Bad Nauheim, Germany and Euradiagnostica, The Netherlands [PP]). […] The detection limit of the assay was 0.25 pmol/l. […] Intra- and inter-assay coefficients of variation were 3.4 and 10.4%, respectively. All values were expressed as mean±SEM. Plasma and motility parameters were separately analyzed for each 60 min period. Pyloric tone was calculated as change from basal, the latter being determined as mean pyloric tone during the total basal period before starting the experiments. Differences of plasma hormones and glucose compared to the basal state were calculated as integrated values over basal (area under the response curve; AUC). Basal levels of plasma parameters were determined as the mean of the two basal values just before the start of each experiment. All samples were first tested for normality by the Kolmogoroff-Smirnoff test. Differences between experimental sets for each parameter were analysed by two-way repeated measures analysis of variance employing intravenous infusion and duodenal perfusion as factors. When this analysis indicated differences, a Student-Newman-Keuls multicomparison test was performed. Differences were considered significant at P<0.05.
(§4) Eleven healthy male volunteers, 23 to 28 years old and within 10% of ideal body weight, participated in the studies. None of them were taking medication, or suffering from gastrointestinal symptoms or systemic disease.
(§5) All studies were performed after an overnight fast. Two experiments were performed, separated by at least 1 week on subjects lying in a semirecumbent position. An indwelling catheter was inserted into an antecubital vein for intravenous infusions. A second catheter was inserted into a dorsal vein of the contralateral hand in a retrograde fashion for sampling of arterialized blood (Schirra et al. Proc Assoc Am Physicians 109, 84-97 (1997)).
(§6) On the interdigestive study day, 0.154 M saline was continuously perfused into the region of the lower duodenal flexure at a rate of 2.5 ml/min. […] On the postprandial study day, the same intravenous infusions were administered with an intraduodenal lipid perfusion at 2.5 kcal/min (2.5 ml/min, Lipofundin MCT 10%, Braun Co., Melsungen, Germany). This lipid preparation consisted of 50% medium-chain triglycerides (MCT) and 50% long-chain triglycerides (LCT, soya bean oil).
Throughout the experiment, blood samples were taken immediately before the start of intravenous infusion, as well as in 10-min intervals thereafter. Blood was collected in ice-chilled EDTA tubes containing 1000 aprotinin (kallikrein inhibitory units/ml blood) and was centrifuged immediately. The plasma was stored at −20° C. until assayed.

[4] = Plasma glucose during intravenous GLP-1 infusion (glucose oxidase method); format: in vivo, human; details: for Nadir of plasma glucose: at 20 min
Description: as §1, §2, §3

[5] = during the experiments of the application
Description: as §4, §5, §6

[6] = intraduodenal lipid, high dose 1.2 pmol·kg−1·min−1 iv.
[7] = intraduodenal lipid, low dose 0.4 pmol·kg−1·min−1 iv.
[8] = intraduodenal saline, high dose 1.2 pmol·kg−1·min−1 iv.
[9] = intraduodenal saline, low dose 0.4 pmol·kg−1·min−1 iv.

Q: With `CC[C@H](C)[C@H](NC(=O)[C@H](Cc1ccccc1)NC(=O)[C@H](CCC(=O)O)NC(=O)[C@H](CCCCN)NC(=O)[C@H](C)NC(=O)[C@H](C)NC(=O)[C@H](CCC(N)=O)NC(=O)CNC(=O)[C@H](CCC(=O)O)NC(=O)[C@H](CC(C)C)NC(=O)[C@H](Cc1ccc(O)cc1)NC(=O)[C@H](CO)NC(=O)[C@H](CO)NC(=O)[C@@H](NC(=O)[C@H](CC(=O)O)NC(=O)[C@H](CO)NC(=O)[C@@H](NC(=O)[C@H](Cc1ccccc1)NC(=O)[C@@H](NC(=O)CNC(=O)[C@H](CCC(=O)O)NC(=O)[C@H](C)NC(=O)[C@@H](N)Cc1c[nH]cn1)[C@@H](C)O)[C@@H](C)O)C(C)C)C(=O)N[C@@H](C)C(=O)N[C@@H](Cc1c[nH]c2ccccc12)C(=O)N[C@@H](CC(C)C)C(=O)N[C@H](C(=O)N[C@@H](CCCCN)C(=O)NCC(=O)N[C@@H](CCCNC(=N)N)C(N)=O)C(C)C` [GLP-1, glucagon-like peptide-1(7-36)amide] as the compound, how does the “Pancreatic polypeptide (AUC over basal)” value [1, 6] read?
A: The value was −104.2 ± 71.1 pg/ml · 60 min.

Q: What about the “Pancreatic polypeptide (AUC over basal)” value [1, 7] of the same compound?
A: The value was 7.7 ± 55.4*∥ pg/ml · 60 min.

Q: And the “Pancreatic polypeptide (AUC over basal)” value [1, 8]?
A: Its value is −128.9 ± 33.2 pg/ml · 60 min.

Q: And the “Pancreatic polypeptide (AUC over basal)” value [1, 9]?
A: Its value is −90.5 ± 32.7 pg/ml · 60 min.

Q: What about the “Glucagon (AUC over basal)” value [2, 6] of the same compound?
A: The value was 48.0 ± 33.8*‡∥ pg/ml · 60 min.

Q: And the “Glucagon (AUC over basal)” value [2, 7]?
A: Its value is 99.7 ± 25.1*∥ pg/ml · 60 min.

Q: And the “Glucagon (AUC over basal)” value [2, 8]?
A: Its value is −68.6 ± 28.9 pg/ml · 60 min.

Q: And the “Glucagon (AUC over basal)” value [2, 9]?
A: The value was −59.0 ± 37.1 pg/ml · 60 min.

Q: What about the “GLP-1 (plasma immunoreactivity, AUC over basal)” value ([3]; intraduodenal lipid 2.5 kcal/min, GLP-1 iv. high dose 1.2 pmol·kg−1·min−1) of the same compound?
A: Its value is 75.2 ± 3.9*‡∥ pmol/l · 60 min.

Q: What about the “GLP-1 (plasma immunoreactivity, AUC over basal)” value ([3]; intraduodenal lipid 2.5 kcal/min, GLP-1 iv. low dose 0.4 pmol·kg−1·min−1) of the same compound?
A: The value was 33.8 ± 2.9*∥ pmol/l · 60 min.

Q: And the “GLP-1 (plasma immunoreactivity, AUC over basal)” value ([3]; intraduodenal saline, GLP-1 iv. high dose 1.2 pmol·kg−1·min−1)?
A: The value was 67.4 ± 4.0 pmol/l · 60 min.

Q: What about the “GLP-1 (plasma immunoreactivity, AUC over basal)” value ([3]; intraduodenal saline, GLP-1 iv. low dose 0.4 pmol·kg−1·min−1) of the same compound?
A: Its value is 25.2 ± 2.6 pmol/l · 60 min.

Q: And the “Time to constant plasma levels after start of infusion” value ([3]; iv. infusion, duodenal saline and lipid)?
A: Its value is no more than 20 min.

Q: What about the “Nadir of plasma glucose” value ([4]; high dose GLP-1) of the same compound?
A: The value was 3.64 ± 0.14 mmol/L.

Q: And the “Plasma glucose (AUC over basal)” value [4, 6]?
A: Its value is −4.5 ± 0.7*∥ mmol/l · 60 min.

Q: What about the “Plasma glucose (AUC over basal)” value [4, 7] of the same compound?
A: The value was −4.7 ± 0.5*∥ mmol/l · 60 min.

Q: And the “Plasma glucose (AUC over basal)” value [4, 8]?
A: Its value is −2.5 ± 0.4 mmol/l · 60 min.

Q: And the “Plasma glucose (AUC over basal)” value [4, 9]?
A: Its value is −2.3 ± 0.3 mmol/l · 60 min.

Q: And the “Nadir of plasma glucose” value ([4]; low dose GLP-1)?
A: The value was 3.58 ± 0.12 mmol/L.

Q: And the “Hypoglycemia and other side effects” value [5]?
A: Its value is “did not cause hypoglycemia”.
